Converted amounts (≈) assume the structure as drawn.
Tests used:
Format in all cases: cell-based
[1] = system: Klebsiella pneumoniae 13883; test: Broth microdilution, K. pneumoniae ATCC 13883; details: 24 h, 37 °C, read-out: MIC K.p. 13883
From the text: (§1) Compounds 3a–h were examined in accordance with the Clinical Laboratory Standards Institute (CLSI) recommendations, by means of the broth microdilution method, against gram-positive bacteria (Staphylococcus aureus 25923, Staphylococcus aureus 29213, Staphylococcus aureus 43300, Enterococcus faecalis 29212) and gram-negative bacteria (Escherichia coli 25922, Klebsiella pneumoniae 13883, Pseudomonas aeruginosa 27853) belonging to the ATCC collection, using levofloxacin as a reference drug. Table 3 lists the results, expressed as MIC (µg/mL). […] The lack of activity observed for compound 3d could be conceivably due to its poor solubility in the culture medium containing the inoculum.
(§2) Following the recommendations of the CLSI (Clinical and Laboratory Standards Institute, 2012), the broth microdilution method was used to determine the in vitro minimum inhibitory concentrations (MICs, µg/mL).. The concentration of the investigated compounds was set to its highest value to create stock solutions. Then, the stock solutions were diluted 1:10 with Cation-Adjusted Mueller Hinton Broth (Oxoid, Milan, Italy). After that, a series of concentrations from 512 µg/mL to […] were obtained in the wells by performing two-fold serial dilutions in the appropriate test medium. The diluent used to create the stock solution was 100% DMSO. We used the following bacterial strains from the ATCC collection that were available as freeze-dried discs: gram-positive strains such as S. aureus ATCC 25923, 29213, and 43300, and E. faecalis ATCC 29212, and gram-negative ones such as E. coli ATCC 25922, K. pneuomoniae ATCC 13883, and P. aeruginosa ATCC 27853. To preserve the purity of cultures and to allow their reproducibility, cryovials of all microbial strains were set up in the medium and stored at −80 °C. Mueller Hinton Broth (MHB) was used to prepare pre-cultures of each bacterial strain, which were then incubated for 3–5 h at 37 °C. In accordance with CLSI procedure M7-A9, the turbidity of the bacterial cell suspension was calibrated to 0.5 McFarland Standard using a spectrophotometric approach (OD625 nm 0.08–0.10). The standardized suspension was then further diluted (1:100) with MHB to reach 1–2 × 10^6 CFU/mL. A 200 µL aliquot of the final inoculum was inserted into each well. As a control for growth, several wells containing only inoculated broth were prepared. The plates were incubated at 37 °C for 24 h, and the MIC values were calculated as the lowest concentration of compounds at which there was no optically detectable bacteria growth. Each experiment was carried out in duplicate and repeated twice to determine the MICs. Levofloxacin served as the study’s standard reference antibiotic. Additionally, the antibacterial activity of DMSO alone (used as a diluent for the investigated compounds) was examined; therefore, volumes of this solvent with a concentration of less than 5% were utilized throughout the experimentation.

[2] = system: Pseudomonas aeruginosa 27853; test: Broth microdilution, P. aeruginosa ATCC 27853; details: 24 h, 37 °C
From the text: as §1, §2

[3] = system: Candida parapsilosis 22019; test: Antifungal microdilution, C. parapsilosis ATCC 22019; details: microdilution CLSI M27-A3, 48 h, 37 °C, read-out: MIC C.p. 22019
Method: (§3) In accordance with CLSI guidelines, compounds 3a–h were tested against a variety of fungal strains (Candida albicans 10231, Candida albicans 90028, Candida glabrata 15126, and Candida parapsilosis 22019) belonging to the ATCC collection. Amphotericin B was utilized as a reference drug. A similar trend of results, or even better than that obtained against bacteria, was assessed against fungal strains. […] Also, in this case, compound 3h emerged as the best of the series, with MICs of 16 μg/mL against Candida glabrata and Candida parapsilosis strains and 32 μg/mL against Candida albicans strains.
(§4) A microdilution technique described by the Clinical and Laboratory Standards Institute (CLSI, M27-A3) was used to assess the antifungal activity. The following fungal strains, belonging to the ATCC collection and available as freeze-dried discs, were used: C. albicans ATCC 10231, C. albicans ATCC 90028, C. glabrata ATCC 15126, and C. parapsilosis ATCC 22019. Stock solutions were prepared and preserved with purity as previously described for the antibacterial studies. Each yeast strain’s pre-cultures were made in Sabouraud broth (SAB) and allowed to grow until they stopped at 37 °C. By using a spectrophotometric technique (530 nm, range 0.12–0.15), the turbidity of the yeast stock suspension was calibrated to 0.5 McFarland Standard. Next, the standardized suspension was diluted first at 1:50 with SAB and then at 1:20 in the same medium to have […]. A total of 100 µL of inoculum was seeded into each well. As a control for growth, several wells containing only inoculated broth were prepared. The plates were incubated for 48 h at 37 °C, and the MIC values were calculated as the final well with no fungal growth. […] MIC values were observed based on the absence of fungal growth in the final well. The MICs were calculated by conducting the antifungal test three times in duplicate. As a control, amphotericin B was used.

Candida albicans 90028 = test: Antifungal microdilution, C. albicans ATCC 90028; details: microdilution CLSI M27-A3, 48 h, 37 °C
Method: as §3, §4

MIC [1] [µg/mL]	MIC [2] [µg/mL]	MIC [3] [µg/mL]	MIC (Candida albicans 90028) [µg/mL]	SMILES
128 (≈ 457 µM)	64 (≈ 228 µM)	32 (≈ 114 µM)	64 (≈ 228 µM)	O=C1c2ccccc2C(=O)N1c1nc2ccccc2s1 [3a, 2-(1,3-benzothiazol-2-yl)-1H-isoindole-1,3(2H)-dione]
128 (≈ 429 µM)	64 (≈ 215 µM)	32 (≈ 107 µM)	64 (≈ 215 µM)	O=C1c2ccccc2C(=O)N1c1nc2ccc(F)cc2s1 [3b, 2-(6-Fluoro-1,3-benzothiazol-2-yl)-1H-isoindole-1,3(2H)-dione]
128 (≈ 367 µM)	128 (≈ 367 µM)	64 (≈ 184 µM)	64 (≈ 184 µM)	O=C1c2ccccc2C(=O)N1c1nc2ccc(C(F)(F)F)cc2s1 [3c, 2-[6-Trifluoromethyl-1,3-benzothiazol-2-yl]-1H-isoindole-1,3(2H)-dione]
> 512	> 512	> 512	> 512	Cc1ccc2nc(N3C(=O)c4ccccc4C3=O)sc2c1 [3d, 2-[6-Methyl-1,3-benzothiazol-2-yl]-1H-isoindole-1,3(2H)-dione]
64 (≈ 206 µM)	64 (≈ 206 µM)	32 (≈ 103 µM)	64 (≈ 206 µM)	COc1ccc2nc(N3C(=O)c4ccccc4C3=O)sc2c1 [3e, 2-[6-Methoxy-1,3-benzothiazol-2-yl]-1H-isoindole-1,3(2H)-dione]

SMILES	MIC [1] [µg/mL]	MIC [2] [µg/mL]	MIC [3] [µg/mL]	MIC (Candida albicans 90028) [µg/mL]
COc1cc2nc(N3C(=O)c4ccccc4C3=O)sc2cc1OC [3f, 2-[5,6-Dimethoxy-1,3-benzothiazol-2-yl]-1H-isoindole-1,3(2H)-dione]	64 (≈ 188 µM)	64 (≈ 188 µM)	32 (≈ 94 µM)	64 (≈ 188 µM)
O=C1c2ccccc2C(=O)N1c1nc2ccc(O)cc2s1 [3g, 2-[6-Hydroxy-1,3-benzothiazol-2-yl]-1H-isoindole-1,3(2H)-dione]	64 (≈ 216 µM)	64 (≈ 216 µM)	32 (≈ 108 µM)	64 (≈ 216 µM)
O=C1c2ccccc2C(=O)N1c1nc2ccc(Oc3ccccc3)cc2s1 [3h, 2-[6-Phenoxy-1,3-benzothiazol-2-yl]-1H-isoindole-1,3(2H)-dione]	32 (≈ 85.9 µM)	32 (≈ 85.9 µM)	16 (≈ 43 µM)	32 (≈ 85.9 µM)
